From paper PMC6105673 (Nature Communications, 2018)
*: point of attachment. Biotin = O=C1N[C@H]2[C@H](CS[C@H]2CCCCC(=O)*)N1

Experiments:
HIS6-PHD2 (181–426) [1] = assay: In vitro hydroxylation assay (HIS6-PHD2 treatment, then IVTT pVHL pull-down); type: biochemical; details: unmodified biotinylated peptides, 15 μg/mL HIS6-PHD2 (181–426), 1 h room temperature, then IVTT HA-VHL30 under stringent buffer
Description: Considering that prolyl hydroxylation is indispensable for HIF-2α binding to pVHL, we next examined the notion that the A530V mutation negatively influences hydroxylation of HIF-2α via PHD2, which would attenuate HIF-2α A530V binding affinity for pVHL. We conducted an in vitro hydroxylation assay utilizing unmodified peptides (amino acids 523–542) incubated with purified HIS6-PHD2 (catalytic core, amino acids 181–426).
Fig. 5 A subset of class 1 mutations specifically disrupts PHD2-mediated hydroxylation. a, b Biotinylated HIF-2α peptides (residues 523–542) were immobilized on streptavidin- agarose beads and incubated with HIS6-PHD2 for 1 h at room temperature prior to incubation with in vitro transcribed and translated (IVTT) pVHL. Streptavidin beads were pulled down (PD) and levels of HA-tagged pVHL were visualized via immmunoblotting (IB). c HEK293a cells were co-transfected with FLAG-VHL and HA-HIF-2α constructs. FLAG was immunoprecipitated (IP) and levels of HA-tagged HIF-2α were visualized via immunoblotting (IB). * denotes uncharacterized band
The in vitro pVHL-HIF-2α hydroxylation assay was performed according to a previously published protocol. 5 μg of biotinylated HIF-2α peptide was immobilized on streptavidin-agarose beads. Subsequently, peptides were incubated with 15 μg/mL HIS6-PHD2 (181–426) in 500 μL of 40 mM HEPES pH 7.4, 80 mM KCl, 5 mM a-ketoglutarate, 2 mM ascorbic acid, 100 μM FeCl2 tetrahydrate solution at room temperature for 1 h. FeCl2 was stored under anoxic conditions to prevent oxidation. Following hydroxylation, beads were washed 5x with EBC buffer and peptides were incubated with IVTT HA-VHL30 under the stringent buffer conditions described above.

HIS6-PHD2 (181–426) [2] = assay: Steady-state pull-down of purified HIS6-PHD2 with biotinylated HIF-2α peptides; type: binding; details: for affinity for PHD2 in steady-state pull-down (immunoblot, in words): peptides (523–542), purified HIS6-PHD2 (181–426), with 1 mM MnCl2 and 1 mM NOG, 2 h at 4 °C
From the text: To first test this hypothesis, we performed steady-state pull-down experiments with HIF-2α peptides (523–542) and purified HIS6-PHD2 (181–426). To stabilize the interaction between enzyme and substrate, it was necessary to include MnCl2 and N-oxalylglycine (NOG) in the binding buffer. Mn^2+ and NOG substitute for Fe^2+ and αKG, respectively, which stabilizes the HIF-2α-PHD2 interaction while preventing enzymatic turnover. A similar strategy was employed during co-crystallization of HIF-1α peptide with PHD2[43]. We observed that […] tested HIF-2α mutations result in decreased affinity for PHD2 (Supplementary Figure 6a). […] Next, we co-transfected HEK293a cells with 3xFLAG-HIF-2α ODD and HA-PHD2 constructs. […] The increased binding of the M535I mutant to PHD2 was not observed in this experiment. One important caveat is that the HIF-2α ODD constructs contain both the P405 and P531 sites. Thus, the residual PHD2 binding observed among HIF-2α mutants may partially be driven by the P405 site, which may mask differential PHD2 binding among the HIF-2α mutant ODD constructs.
5 μg of biotinylated HIF-2α peptide (WT or mutant) was immobilized on streptavidin agarose beads and incubated with a […] solution of purified HIS6-PHD2 (181–426) in 50 mM Tris-HCl pH 7.5, 0.005% (v/v) Tween-20 buffer supplemented with or without 1 mM MnCl2 and 1 mM NOG, for 2 h at 4 °C. Beads were washed 2x with the same buffer. Biotinylated peptide was pulled down via streptavidin agarose beads and protein was eluted by boiling beads in sample buffer. Protein levels of HIS6-PHD2 were determined by western blotting. Uncropped western blots are provided in Supplementary Figure 8.
Supplementary Figure 6. HIF-2α mutations disrupt PHD2 binding. (A) Biotinylated HIF-2α peptides (523-542, except where noted) were immobilized on streptavidin- agarose beads and incubated with purified HIS6-PHD2 (181-426) in the presence or absence of 1 mM MnCl2 and 1 mM N-oxalylglycine (NOG).
Streptavidin beads were pulled down (PD) and levels of HIS6-tagged PHD2 were visualized via immmunoblotting (IB). […]

HIS6-PHD2(181-426) = assay: Biolayer interferometry of HIS6-PHD2 binding to biotinylated HIF-2α peptides (523-542); details: BLI, 1 mM MnCl2 and 1 mM N-oxalylglycine, from mM to μM, accurate constants not possible (PHD2 aggregation)
From the text: 2. The authors concluded that some of class 1 mutation affects PHD2-mediated hydroxylation of HIF-2α (Fig. 4). I think it is better to examine the interaction between HIF -2α mutants and PHD2 utilizing IP-Western and BLI. Also, negative controls (non-hydroxylated HIF-2α peptide without PHD2 treatment) should be included in Fig. 4A and 4B.
RE S PO N S E : Done. We performed binding assays with recombinant PHD2 to test the reviewer’s […]
major technical hurdle with performing binding assay with enzymes is overcoming the inherently transient nature of the interaction.
In an effort to stabilize the interaction between HIF-2α peptide and PHD2, we incorporated a technique that was used during co-crystallization of HIF-1α peptide with PHD2 (Chowdhury et al., 2009). As PHD2 normally forms a stable complex with co-factors Fe2+ and α-ketoglutarate (αK G), we formed a complex of PHD2 with Mn2+ and N-oxalylglycine (NOG), which mimic iron and αK G, […]
During BLI experiments, the addition of […]
Figure X. Biolayer interferometry studies of HIF-2α peptide binding to PHD2. […] Biotinylated peptides were coupled to streptavidin- coated biosensors and monitored for binding to PHD2 at the indicated concentrations in the presence or absence of 1 mM MnCl2 and 1 mM N-oxalylglycine. The data were analyzed based on a 1:1 binding model using the BLItz Pro software with the fitted curves shown as gray lines. […]

[3] = biological target: T1, HIS6-PHD2 (catalytic core, amino acids 181–426) (UniProt Q9GZT9 181-426); assay: pull-down; biotinylated unmodified peptide on streptavidin agarose, purified HIS6-PHD2 (181–426), 50 mM Tris-HCl pH 7.5, 0.005% Tween-20 with 1 mM MnCl2 and 1 mM NOG, 2 h at 4 °C; anti-HIS blot; details: both partners purified
T1 construct: prolyl hydroxylase domain containing enzyme 2 (PHD2, encoded by EGLN1), catalytic core, residues 181-426; plasmid pET-46 HIS6-PHD2; also called purified HIS6-PHD2 (181–426); source: E. coli BL21(DE3), purified (nickel sepharose, SEC)
T1 sequence (Q9GZT9 181-426): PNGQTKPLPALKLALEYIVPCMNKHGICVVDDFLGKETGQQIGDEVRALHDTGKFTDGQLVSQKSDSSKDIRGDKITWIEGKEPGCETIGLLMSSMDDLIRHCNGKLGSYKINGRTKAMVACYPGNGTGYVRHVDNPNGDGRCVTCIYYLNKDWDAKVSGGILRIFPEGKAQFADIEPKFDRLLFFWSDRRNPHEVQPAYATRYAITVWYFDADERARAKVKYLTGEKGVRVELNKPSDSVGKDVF

| Molecule | binding to pVHL following HIS6-PHD2 treatment (immunoblot, in words) (HIS6-PHD2 (181–426) [1]) | affinity for PHD2 in steady-state pull-down (immunoblot, in words) (HIS6-PHD2 (181–426) [2]) | pull-down of recombinant PHD2 (in words) (HIS6-PHD2 (181–426) [2]; earlier experiments, without Mn2+/NOG stabilization) | decrease of Kd for PHD2 on addition of Mn2+ and NOG (HIS6-PHD2(181-426)) | binding result [3] |
| --- | --- | --- | --- | --- | --- |
| Bio-HIF-2α(M535I): unmodified HIF-2α peptide (523–542) with M535I mutation (Biotin-ELDLETLAPYIPIDGEDFQL-NH2; SMILES CC[C@H](C)[C@H](NC(=O)[C@@H]1CCCN1C(=O)[C@@H](NC(=O)[C@H](Cc1ccc(O)cc1)NC(=O)[C@@H]1CCCN1C(=O)[C@H](C)NC(=O)[C@H](CC(C)C)NC(=O)[C@@H](NC(=O)[C@H](CCC(=O)O)NC(=O)[C@H](CC(C)C)NC(=O)[C@H](CC(=O)O)NC(=O)[C@H](CC(C)C)NC(=O)[C@H](CCC(=O)O)NC(=O)CCCC[C@@H]1SC[C@@H]2NC(=O)N[C@@H]21)[C@@H](C)O)[C@@H](C)CC)C(=O)N[C@@H](CC(=O)O)C(=O)NCC(=O)N[C@@H](CCC(=O)O)C(=O)N[C@@H](CC(=O)O)C(=O)N[C@@H](Cc1ccccc1)C(=O)N[C@@H](CCC(N)=O)C(=O)N[C@@H](CC(C)C)C(N)=O) | still retained affinity for pVHL | not as deleterious | – | – | – |
| ELDLETLA[Hyp/P]YIPMDGEDFQL [Bio-HIF-2α(523-542;WT)] | bound robustly | observed binding | failed to pull -down recombinant PHD2 protein | roughly 1000 fold | – |
| Biotin-ELDLETLAPYIPMDGEDFQL-NH2 (SMILES CC[C@H](C)[C@H](NC(=O)[C@H](Cc1ccc(O)cc1)NC(=O)[C@@H]1CCCN1C(=O)[C@H](C)NC(=O)[C@H](CC(C)C)NC(=O)[C@@H](NC(=O)[C@H](CCC(=O)O)NC(=O)[C@H](CC(C)C)NC(=O)[C@H](CC(=O)O)NC(=O)[C@H](CC(C)C)NC(=O)[C@H](CCC(=O)O)NC(=O)CCCC[C@@H]1SC[C@@H]2NC(=O)N[C@@H]21)[C@@H](C)O)C(=O)N1CCC[C@H]1C(=O)N[C@@H](CCSC)C(=O)N[C@@H](CC(=O)O)C(=O)NCC(=O)N[C@@H](CCC(=O)O)C(=O)N[C@@H](CC(=O)O)C(=O)N[C@@H](Cc1ccccc1)C(=O)N[C@@H](CCC(N)=O)C(=O)N[C@@H](CC(C)C)C(N)=O, Used for the pull-down of HIS6-PHD2; source: synthetic peptide (Genscript)) [HIF-2α WT peptide (523-542), unmodified] | – | – | – | – | binds |
| Biotin-ELDLETLAPYIPIDGEDFQL-NH2 (peptide, UniProt Q99814 523-542, looked up, SMILES CC[C@H](C)[C@H](NC(=O)[C@@H]1CCCN1C(=O)[C@@H](NC(=O)[C@H](Cc1ccc(O)cc1)NC(=O)[C@@H]1CCCN1C(=O)[C@H](C)NC(=O)[C@H](CC(C)C)NC(=O)[C@@H](NC(=O)[C@H](CCC(=O)O)NC(=O)[C@H](CC(C)C)NC(=O)[C@H](CC(=O)O)NC(=O)[C@H](CC(C)C)NC(=O)[C@H](CCC(=O)O)NC(=O)CCCC[C@@H]1SC[C@@H]2NC(=O)N[C@@H]21)[C@@H](C)O)[C@@H](C)CC)C(=O)N[C@@H](CC(=O)O)C(=O)NCC(=O)N[C@@H](CCC(=O)O)C(=O)N[C@@H](CC(=O)O)C(=O)N[C@@H](Cc1ccccc1)C(=O)N[C@@H](CCC(N)=O)C(=O)N[C@@H](CC(C)C)C(N)=O, Used for the pull-down of HIS6-PHD2; also called M535I class 2 mutant; source: synthetic peptide (Genscript)) [HIF-2α M535I peptide (523-542), unmodified] | – | – | – | – | binds |
